The values below are quoted from earlier work in patent US20240374634A1, “NUTRACEUTICAL OPHTHALMIC COMPOSITION FOR THE TREATMENT OF RETINAL PATHOLOGIES HAVING A NEOVASCULAR COMPONENT” (Laboratoires THEA, priority 2018, published 2024).

For this data set the following is noted: 300 patients over three years, after a significant increase in DHA in cells.

Take `CC/C=C\C/C=C\C/C=C\C/C=C\C/C=C\C/C=C\CCC(=O)O` [DHA, Docosahexaenoic acid (DHA)]: the “reduction in the risks of developing neovascular AMD” value is on record as 68%.
